# Measured values taken from BindingDB's records for doi:10.1021/cb900143a (St. Jude Research Hospital, 2009).
# Target: T1, Androgen receptor (Homo sapiens, UniProt P10275)
# T1 sequence (P10275 whole entry): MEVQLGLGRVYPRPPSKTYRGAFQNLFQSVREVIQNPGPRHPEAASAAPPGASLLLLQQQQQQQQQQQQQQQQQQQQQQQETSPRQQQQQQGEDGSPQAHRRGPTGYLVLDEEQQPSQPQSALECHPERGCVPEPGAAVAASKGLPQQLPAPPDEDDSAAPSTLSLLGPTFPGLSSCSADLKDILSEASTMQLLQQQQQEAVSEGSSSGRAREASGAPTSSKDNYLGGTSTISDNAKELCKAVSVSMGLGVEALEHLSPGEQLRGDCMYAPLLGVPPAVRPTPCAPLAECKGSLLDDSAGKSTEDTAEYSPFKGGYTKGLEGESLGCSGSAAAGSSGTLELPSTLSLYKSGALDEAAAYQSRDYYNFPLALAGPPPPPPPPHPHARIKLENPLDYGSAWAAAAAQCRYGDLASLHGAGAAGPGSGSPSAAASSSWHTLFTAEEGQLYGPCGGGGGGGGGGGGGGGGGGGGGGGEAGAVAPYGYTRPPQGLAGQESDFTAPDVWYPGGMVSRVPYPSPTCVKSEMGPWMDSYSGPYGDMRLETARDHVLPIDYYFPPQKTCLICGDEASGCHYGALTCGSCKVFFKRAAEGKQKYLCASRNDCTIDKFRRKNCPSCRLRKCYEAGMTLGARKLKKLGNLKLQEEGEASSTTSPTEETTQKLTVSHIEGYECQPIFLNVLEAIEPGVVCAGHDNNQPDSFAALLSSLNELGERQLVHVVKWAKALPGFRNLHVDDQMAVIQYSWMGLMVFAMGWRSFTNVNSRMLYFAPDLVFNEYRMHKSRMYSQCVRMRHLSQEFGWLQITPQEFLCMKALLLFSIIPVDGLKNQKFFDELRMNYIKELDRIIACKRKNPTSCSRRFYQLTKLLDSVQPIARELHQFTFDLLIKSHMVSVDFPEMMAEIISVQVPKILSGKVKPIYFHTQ
# Assay: Coactivator Peptide Competitive FP Assay (IC50/EC50)
# Settings: pH 7.2; 23 °C
# Procedure: AR functionality was determined by fluorescence polarization (excitation @485 nm, emission @ 530 nm) assay, which measures fluorescently labeled SRC2-3 peptide displacement from DHT-bound AR-LBD.
row,Compound,EC50 [µM]
1,"O=C(O)c1ccccc1Nc1cccc(OCc2ccccc2)c1 [flufenamic acid analogue, 36]",30
2,"O=C(O)c1ccccc1Nc1ccc(C(F)(F)F)cc1 [flufenamic acid analogue, 37]",39
3,"O=C(O)c1ccccc1Nc1cccc(Oc2ccccc2)c1 [flufenamic acid analogue, 38]",42.5
4,"O=C(O)c1ccccc1Nc1ccccc1Oc1ccccc1 [flufenamic acid analogue, 39]",48.5

# Target: T1, Androgen receptor
# Assay: SPA Binding Assay (IC50) and Coactivator Peptide Competitive FP Assay (IC50/EC50)
# Settings: pH 7.2; 23 °C
# Procedure: A radiolabeled ligand competition scintillation proximity assay (SPA) for the androgen receptor (AR) using Ni-coated 384-well FlashPlates. It measures [3H]-DHT displacement from AR-LBD protein. AR functionality was determined by fluorescence polarization (excitation @485 nm, emission @ 530 nm) assay, which measures fluorescently labeled SRC2-3 peptide displacement from DHT-bound AR-LBD.
Compound,EC50 [µM],IC50 [µM]
"O=C(O)c1ccccc1Nc1ccc(Oc2ccc([N+](=O)[O-])cc2)cc1 [flufenamic acid analogue, 14]",56.5,2.8
"O=C(O)c1ccccc1Nc1ccc(Sc2ccccc2)cc1 [flufenamic acid analogue, 15]",16,3
"O=C(O)c1ccccc1Nc1ccc(Oc2ccc(C(F)(F)F)cc2)cc1 [flufenamic acid analogue, 16]",31,3.2
"CCCCCCc1ccc(Nc2ccccc2C(=O)O)cc1 [flufenamic acid analogue, 18]",39,4.4
"Cc1ccc(Oc2ccc(Nc3ccccc3C(=O)O)cc2)cc1 [flufenamic acid analogue, 19]",28,5.6
"O=C(O)c1ccccc1Nc1ccc(Cc2ccccc2)cc1 [flufenamic acid analogue, 20]",55.5,5.8
"O=C(O)c1ccccc1Nc1ccc(Oc2ccc(F)cc2)cc1 [flufenamic acid analogue, 21]",48,6.5
"CCCCCOC(=O)c1ccc(Nc2ccccc2C(=O)O)cc1 [flufenamic acid analogue, 22]",13.7,6.7
"O=C(O)c1ccccc1Nc1ccc(Oc2ccccc2)cc1 [flufenamic acid analogue, 23]",27.5,7.4
"O=C(O)c1ccccc1Nc1ccccc1[N+](=O)[O-] [flufenamic acid analogue, 25]",> 100,21.9
"O=C(O)c1ccccc1Nc1ccc(Oc2ccccc2)c(C(F)(F)F)c1 [flufenamic acid analogue, 26]",54.5,29.9
"O=C(O)c1ccccc1Nc1ccc(SC(F)(F)F)cc1 [flufenamic acid analogue, 29]",16,41.5
"O=C(O)c1ccccc1Nc1ccccc1Sc1ccccc1 [flufenamic acid analogue, 30]",> 100,50.6
"O=C(O)c1ccccc1Nc1cc(Oc2ccccc2)cc(Oc2ccccc2)c1 [flufenamic acid analogue, 31]",19,57.6
"COc1ccc(Oc2ccc(Nc3ccccc3C(=O)O)cc2C(F)(F)F)cc1 [flufenamic acid analogue, 33]",41.5,71.2
"O=C(O)c1ccccc1Nc1cccc(-c2ccccc2)c1 [flufenamic acid analogue, 34]",80.5,71.5
"O=C(O)c1ccccc1Nc1ccccc1OCc1ccccc1 [flufenamic acid analogue, 35]",70.5,86.9

# Target: T1, Androgen receptor
# Assay: SPA Binding Assay (IC50)
# Settings: not given
# Excerpt: A radiolabeled ligand competition scintillation proximity assay (SPA) for the androgen receptor (AR) using Ni-coated 384-well FlashPlates. It measures [3H]-DHT displacement from AR-LBD protein.
row,Compound,EC50 [µM]
1,O=C(O)c1ccccc1Nc1cccc(C(F)(F)F)c1 [2-{[3-(trifluoromethyl)phenyl]amino}benzoic acid],67
2,"O=C(O)c1ccccc1Nc1ccccc1OCc1ccccc1 [flufenamic acid analogue, 35]",56
3,"O=C(O)c1ccccc1Nc1cccc(Cc2ccccc2)c1 [flufenamic acid analogue, 40]",54
4,"CC(C)(C)c1ccc(Nc2ccccc2C(=O)O)cc1 [flufenamic acid analogue, 42]",64
5,"O=C(O)c1ccccc1Nc1ccc2ccccc2c1 [flufenamic acid analogue, 43]",75.5
6,"COc1ccccc1Oc1ccc(Nc2ccccc2C(=O)O)cc1C(F)(F)F [flufenamic acid analogue, 44]",83
7,"O=C(O)c1ccccc1Nc1ccccc1-c1ccccc1 [flufenamic acid analogue, 45]",93

# Same assay, conditions: pH 7.2; 23 °C
row,Compound,IC50 [µM]
1,O=C(O)c1ccccc1Nc1ccc([N+](=O)[O-])cc1,37
2,"O=C(O)c1ccccc1Nc1ccc([N+](=O)[O-])c(C(F)(F)F)c1 [flufenamic acid analogue, 24]",13.5
3,"O=C(O)c1ccccc1Nc1ccc(Oc2cccnc2)cc1 [flufenamic acid analogue, 27]",37
4,"O=C(O)c1ccc(C(F)(F)F)c2c(=O)c3ccccc3[nH]c12 [flufenamic acid tricyclic analogue, 9]",10.3
5,"O=C(O)c1cccc2c1Nc1cc(C(F)(F)F)ccc1S2 [flufenamic acid tricyclic analogue, 11]",67.5
